Results taken from patent US20230085307A1, “PYRIDAZINONE COMPOUND AND HERBICIDE” (NISSAN CHEMICAL CORPORATION, priority 2019, published 2023).

Experiments:
lambsquarters [1] = test: Test Example 5: herbicidal effect by foliage application, plastic box (Table 20, symbol O); assay type: in vivo, lambsquarters (Chenopodium album); settings: foliage application, 320 g/ha
Procedure, shortened: (§1)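 Plants sown in sterilized diluvial soil and grown 14 days in a greenhouse at 25° C to 30° C, then sprayed on the foliage with the compound's emulsion diluted in water to a predetermined herbicide amount. Injury to weeds and crops scored three weeks after application on a visual rating scale.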

velvetleaf [2] = test: Test Example 5: herbicidal effect by foliage application, plastic box (Table 20, symbol M); assay type: in vivo, velvetleaf (Abutilon theophrasti); settings: foliage application, 320 g/ha
Procedure, shortened: as §1

oval-leafed pondweed [3] = test: Test Example 1: herbicidal activity, application before weed generation under submerged conditions (Table 16, symbol C); assay type: in vivo, oval-leafed pondweed (Monochoria vaginalis); settings: 320 g/ha applied herbicide
Procedure, shortened: (§2)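 Submerged Wagner pots (alluvial soil, 4 cm water) sown with weed seeds and planted with 2.5-leaf rice seedlings; emulsifiable concentrate diluted in water applied to water surface on sowing day. Held in greenhouse at 25-30 °C; injury scored 0-5 by herbicidal rate after three weeks.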

chickweed = test: Test Example 5: herbicidal effect by foliage application, plastic box (Table 20, symbol P); assay type: in vivo, common chickweed (Stellaria media); settings: foliage application, 320 g/ha
Procedure, shortened: as §1

late watergrass [4] = test: Test Example 1: herbicidal activity, application before weed generation under submerged conditions (Table 16, symbol A); assay type: in vivo, late watergrass (Echinochloa oryzicola); settings: 320 g/ha applied herbicide
Procedure, shortened: as §2

false cleavers [5] = test: Test Example 5: herbicidal effect by foliage application, plastic box (Table 20, symbol Q); assay type: in vivo, false cleavers (Galium spurium); settings: foliage application, 320 g/ha, evaluated three weeks after application
Procedure, shortened: as §1

Japanese bulrush [6] = test: Test Example 1: herbicidal activity, application before weed generation under submerged conditions (Table 16, symbol B); assay type: in vivo, Japanese bulrush (Schoenoplectus juncoides); settings: 320 g/ha applied herbicide
Procedure, shortened: as §2

rice flat sedge = test: Test Example 3: herbicidal effect by foliage application, Wagner pot (Table 18, symbol E); assay type: in vivo, rice flat sedge (Cyperus iria)
Procedure, shortened: (§3)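 Plants were sown in alluvial soil held under 0.1–0.5 cm standing water and grown 14 days in a greenhouse at 25–30 °C. An emulsifiable formulation, water-diluted to the set dose, was then sprayed onto the foliage, and effects were scored three weeks later using previously defined criteria.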

green foxtail [7] = test: Test Example 5: herbicidal effect by foliage application, plastic box (Table 20, symbol G); assay type: in vivo, green foxtail (Setaria viridis); settings: foliage application, 320 g/ha
Procedure, shortened: as §1

Chinese sprangletop = test: Test Example 3: herbicidal effect by foliage application, Wagner pot (Table 18, symbol D); assay type: in vivo, chinese sprangletop (Leptochloa chinensis)
Procedure, shortened: as §3

oval-leafed pondweed [8] = test: Test Example 2: herbicidal activity, application during weed generation under submerged conditions (Table 17, symbol C); assay type: in vivo, oval-leafed pondweed (Monochoria vaginalis); settings: AAH 320 g/ha; application during weed generation, submerged conditions
Procedure, shortened: (§4)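 Mixed weed seedlings in alluvial soil under a 4 cm water layer, greenhouse-grown at 25–30° C. Compound given as a diluted emulsion into the floodwater at the 1–2 leaf stage; response graded after three weeks.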

barnyard grass [9] = test: Test Example 3: herbicidal effect by foliage application, Wagner pot (Table 18, symbol H); assay type: in vivo, barnyard grass (Echinochloa crus-galli)
Procedure, shortened: as §3

wild oat [10] = test: Test Example 5: herbicidal effect by foliage application, plastic box (Table 20, symbol I); assay type: in vivo, wild oat (Avena fatua); settings: foliage application, 320 g/ha
Procedure, shortened: as §1

windgrass = test: Test Example 5: herbicidal effect by foliage application, plastic box (Table 20, symbol L); assay type: in vivo, windgrass (Apera spica-venti); settings: foliage application, 320 g/ha
Procedure, shortened: as §1

persian speedwell = test: Test Example 5: herbicidal effect by foliage application, plastic box (Table 20, symbol R); assay type: in vivo, Persian speedwell (Veronica persica); settings: foliage application, 320 g/ha
Procedure, shortened: as §1

Italian ryegrass [11] = test: Test Example 5: herbicidal effect by foliage application, plastic box (Table 20, symbol K); assay type: in vivo, Italian ryegrass (Lolium multiflorum); settings: foliage application, 320 g/ha
Procedure, shortened: as §1

Japanese bulrush [12] = test: Test Example 2: herbicidal activity, application during weed generation under submerged conditions (Table 17, symbol B); assay type: in vivo, Japanese bulrush (Schoenoplectus juncoides); settings: AAH 320 g/ha; application during weed generation, submerged conditions
Procedure, shortened: as §4

blackgrass [13] = test: Test Example 5: herbicidal effect by foliage application, plastic box (Table 20, symbol J); assay type: in vivo, blackgrass (Alopecurus myosuroides); settings: foliage application, 320 g/ha
Procedure, shortened: as §1

barnyard grass [14] = test: Test Example 5: herbicidal effect by foliage application, plastic box (Table 20, symbol H); assay type: in vivo, barnyard grass (Echinochloa crus-galli); settings: foliage application, 320 g/ha
Procedure, shortened: as §1

late watergrass [15] = test: Test Example 2: herbicidal activity, application during weed generation under submerged conditions (Table 17, symbol A); assay type: in vivo, late watergrass (Echinochloa oryzicola); settings: AAH 320 g/ha; application during weed generation, submerged conditions
Procedure, shortened: as §4

southern crabgrass [16] = test: Test Example 5: herbicidal effect by foliage application, plastic box (Table 20, symbol F); assay type: in vivo, southern crabgrass (Digitaria ciliaris); settings: foliage application, 320 g/ha
Procedure, shortened: as §1

redroot pigweed [17] = test: Test Example 5: herbicidal effect by foliage application, plastic box (Table 20, symbol N); assay type: in vivo, redroot pigweed (Amaranthus retroflexus); settings: foliage application, 320 g/ha
Procedure, shortened: as §1

wild oat [18] = test: Test Example 4: herbicidal effect by soil treatment (Table 19, symbol I); assay type: in vivo, wild oat (Avena fatua); settings: amount of applied herbicide 320 g/ha
Procedure, shortened: (§5)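 Seeds were sown in sterilized diluvial soil and covered with about 1.5 cm of soil. An emulsion formulation diluted with water to a predetermined herbicide amount was sprayed evenly onto the soil surface. Plants grew in a greenhouse at 25° C. to 30° C., and the effect was scored three weeks after application using criteria from an earlier test.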

green foxtail [19] = test: Test Example 4: herbicidal effect by soil treatment (Table 19, symbol G); assay type: in vivo, green foxtail (Setaria viridis); settings: amount of applied herbicide 320 g/ha
Procedure, shortened: as §5

southern crabgrass [20] = test: Test Example 4: herbicidal effect by soil treatment (Table 19, symbol F); assay type: in vivo, southern crabgrass (Digitaria ciliaris); settings: amount of applied herbicide 320 g/ha
Procedure, shortened: as §5

barnyard grass [21] = test: Test Example 4: herbicidal effect by soil treatment (Table 19, symbol H); assay type: in vivo, barnyard grass (Echinochloa crus-galli); settings: amount of applied herbicide 320 g/ha
Procedure, shortened: as §5

redroot pigweed [22] = test: Test Example 4: herbicidal effect by soil treatment (Table 19, symbol N); assay type: in vivo, redroot pigweed (Amaranthus retroflexus); settings: amount of applied herbicide 320 g/ha
Procedure, shortened: as §5

Italian ryegrass [23] = test: Test Example 4: herbicidal effect by soil treatment (Table 19, symbol K); assay type: in vivo, Italian ryegrass (Lolium multiflorum); settings: amount of applied herbicide 320 g/ha
Procedure, shortened: as §5

blackgrass [24] = test: Test Example 4: herbicidal effect by soil treatment (Table 19, symbol J); assay type: in vivo, blackgrass (Alopecurus myosuroides); settings: amount of applied herbicide 320 g/ha
Procedure, shortened: as §5

false cleavers [25] = test: Test Example 4: herbicidal effect by soil treatment (Table 19, symbol Q); assay type: in vivo, false cleavers (Galium spurium); settings: amount of applied herbicide 320 g/ha
Text: [Test Example 4] Herbicidal Effect Test by Soil Treatment
Sterilized diluvial soil was placed in a plastic box having a length of 21 cm, a width of 13 cm, and a depth of 7 cm. The seeds of each of southern crabgrass, green foxtail, barnyard grass, wild oat, blackgrass, Italian ryegrass, windgrass, velvetleaf, redroot pigweed, lambsquarters, chickweed, false cleavers, persian speedwell, corn, soybean, rice, wheat, beet, and rapeseed were sowed in a spot-like manner and covered with the soil having a thickness of about 1.5 cm. Subsequently, the emulsion agent of the compound of the present invention prepared according to Formulation Example 2 was diluted with water so as to achieve a predetermined herbicide amount, and the diluted emulsion agent was uniformly applied to the surface of the soil with a small-sized spray. The plastic box was placed in a greenhouse at 25° C. to 30° C. for growth of the plants. Three weeks after the herbicide application, the effect of the herbicide on each plant was evaluated according to the criteria of Test Example 1.

velvetleaf [26] = test: Test Example 4: herbicidal effect by soil treatment (Table 19, symbol M); assay type: in vivo, velvetleaf (Abutilon theophrasti); settings: amount of applied herbicide 320 g/ha
Procedure, shortened: as §5

lambsquarters [27] = test: Test Example 4: herbicidal effect by soil treatment (Table 19, symbol O); assay type: in vivo, lambsquarters (Chenopodium album); settings: amount of applied herbicide 320 g/ha
Procedure, shortened: as §5

[28] = evaluated three weeks after application
[29] = amount of applied herbicide 320 g/ha

## COCCOCOc1c(C)nn(C)c(=O)c1-c1c(-c2ccc(OCc3ccccc3)cc2)sc2ccc(F)cc12 [2-064]
Lambsquarters [1]; [28]
  herbicidal effect on O: lambsquarters: 4 (Herbicidal rate of 70% or more and less than 90%)
Velvetleaf [2]; [28]
  herbicidal effect on M: velvetleaf: 3 (Herbicidal rate of 40% or more and less than 70%)
oval-leafed pondweed [3]
  Herbicidal effect on C: oval-leafed pondweed (grade 0-5): 3 (Herbicidal rate of 40% or more and less than 70%)
chickweed; [28]
  herbicidal effect on P: chickweed: 4 (Herbicidal rate of 70% or more and less than 90%)
Late watergrass [4]
  Herbicidal effect on A: late watergrass (grade 0-5): 4 (Herbicidal rate of 70% or more and less than 90%)
False cleavers [5]
  herbicidal effect on Q: false cleavers: 4 (Herbicidal rate of 70% or more and less than 90%)
Japanese bulrush [6]
  Herbicidal effect on B: Japanese bulrush (grade 0-5): 4 (Herbicidal rate of 70% or more and less than 90%)
Rice flat sedge; 320 g/ha
  herbicidal effect on E (rice flat sedge), rating 0-5: 0 (Herbicidal rate of 5% or less (almost no effect))
Green foxtail [7]; [28]
  herbicidal effect on G: green foxtail: 3 (Herbicidal rate of 40% or more and less than 70%)
Chinese sprangletop; 320 g/ha
  herbicidal effect on D (Chinese sprangletop), rating 0-5: 3 (Herbicidal rate of 40% or more and less than 70%)
oval-leafed pondweed [8]
  herbicidal effect rating, C: oval-leafed pondweed: 0 (Herbicidal rate of 5% or less (almost no effect))
Barnyard grass [9]; 320 g/ha
  herbicidal effect on H (barnyard grass), rating 0-5: 3 (Herbicidal rate of 40% or more and less than 70%)
Wild oat [10]; [28]
  herbicidal effect on I: wild oat: 0 (Herbicidal rate of 5% or less (almost no effect))
windgrass; [28]
  herbicidal effect on L: windgrass: 0 (Herbicidal rate of 5% or less (almost no effect))
Persian speedwell; [28]
  herbicidal effect on R: persian speedwell: 4 (Herbicidal rate of 70% or more and less than 90%)
Italian ryegrass [11]; [28]
  herbicidal effect on K: Italian ryegrass: 0 (Herbicidal rate of 5% or less (almost no effect))
Japanese bulrush [12]
  herbicidal effect rating, B: Japanese bulrush: 3 (Herbicidal rate of 40% or more and less than 70%)
Blackgrass [13]; [28]
  herbicidal effect on J: blackgrass: 0 (Herbicidal rate of 5% or less (almost no effect))
Barnyard grass [14]; [28]
  herbicidal effect on H: barnyard grass: 3 (Herbicidal rate of 40% or more and less than 70%)
Late watergrass [15]
  herbicidal effect rating, A: late watergrass: 3 (Herbicidal rate of 40% or more and less than 70%)
Southern crabgrass [16]; [28]
  herbicidal effect on F: southern crabgrass: 3 (Herbicidal rate of 40% or more and less than 70%)
Redroot pigweed [17]; [28]
  herbicidal effect on N: redroot pigweed: 5 (Herbicidal rate of 90% or more (almost completely withered))

## Cc1nn(C)c(=O)c(-c2c(-c3ccc(F)cc3)sc3cc(Cl)ccc23)c1O [3-031]
Lambsquarters [1]; three weeks after application
  O: lambsquarters, herbicidal effect grade: 4 (Herbicidal rate of 70% or more and less than 90%)
Wild oat [18]
  I: wild oat, herbicidal effect grade: 1 (Herbicidal rate of 5% or more and less than 20%)
Velvetleaf [2]; three weeks after application
  M: velvetleaf, herbicidal effect grade: 5 (Herbicidal rate of 90% or more (almost completely withered))
chickweed; three weeks after application
  P: chickweed, herbicidal effect grade: 5 (Herbicidal rate of 90% or more (almost completely withered))
Green foxtail [19]
  G: green foxtail, herbicidal effect grade: 4 (Herbicidal rate of 70% or more and less than 90%)
Rice flat sedge; [29]
  herbicidal effect on E: rice flat sedge: 3 (Herbicidal rate of 40% or more and less than 70%)
Green foxtail [7]; three weeks after application
  G: green foxtail, herbicidal effect grade: 5 (Herbicidal rate of 90% or more (almost completely withered))
Southern crabgrass [20]
  F: southern crabgrass, herbicidal effect grade: 3 (Herbicidal rate of 40% or more and less than 70%)
Barnyard grass [21]
  H: barnyard grass, herbicidal effect grade: 3 (Herbicidal rate of 40% or more and less than 70%)
Chinese sprangletop; [29]
  herbicidal effect on D: Chinese sprangletop: 2 (Herbicidal rate of 20% or more and less than 40%)
Barnyard grass [9]; [29]
  herbicidal effect on H: barnyard grass: 5 (Herbicidal rate of 90% or more (almost completely withered))
Wild oat [10]; three weeks after application
  I: wild oat, herbicidal effect grade: 5 (Herbicidal rate of 90% or more (almost completely withered))
windgrass; three weeks after application
  L: windgrass, herbicidal effect grade: 5 (Herbicidal rate of 90% or more (almost completely withered))
Redroot pigweed [22]
  N: redroot pigweed, herbicidal effect grade: 3 (Herbicidal rate of 40% or more and less than 70%)
Persian speedwell; three weeks after application
  R: persian speedwell, herbicidal effect grade: 5 (Herbicidal rate of 90% or more (almost completely withered))
Italian ryegrass [23]
  K: Italian ryegrass, herbicidal effect grade: 3 (Herbicidal rate of 40% or more and less than 70%)
Italian ryegrass [11]; three weeks after application
  K: Italian ryegrass, herbicidal effect grade: 5 (Herbicidal rate of 90% or more (almost completely withered))
Blackgrass [24]
  J: blackgrass, herbicidal effect grade: 0 (Herbicidal rate of 5% or less (almost no effect))
False cleavers [25]
  Q: false cleavers, herbicidal effect grade: 4 (Herbicidal rate of 70% or more and less than 90%)
Blackgrass [13]; three weeks after application
  J: blackgrass, herbicidal effect grade: 4 (Herbicidal rate of 70% or more and less than 90%)
Barnyard grass [14]; three weeks after application
  H: barnyard grass, herbicidal effect grade: 4 (Herbicidal rate of 70% or more and less than 90%)
Velvetleaf [26]
  M: velvetleaf, herbicidal effect grade: 2 (Herbicidal rate of 20% or more and less than 40%)
Southern crabgrass [16]; three weeks after application
  F: southern crabgrass, herbicidal effect grade: 4 (Herbicidal rate of 70% or more and less than 90%)
Redroot pigweed [17]; three weeks after application
  N: redroot pigweed, herbicidal effect grade: 5 (Herbicidal rate of 90% or more (almost completely withered))
Lambsquarters [27]
  O: lambsquarters, herbicidal effect grade: 4 (Herbicidal rate of 70% or more and less than 90%)
